Data: PMC8343220, “The selectivity of α‐adrenoceptor agonists for the human α1A, α1B, and α1D‐adrenoceptors” (Pharmacology Research & Perspectives, 2021)

Experiments:
[1] = target: T1, human α1D‐adrenoceptor (full length) (Homo sapiens, UniProt P25100); test: ^3H‐cAMP accumulation in the presence of 10 μM forskolin, CHO‐α1D cells; assay type: cell-based; conditions: CHO‐α1D cells; for cAMP (in presence of forskolin) Fold increase: fold increase of the forskolin response; for EC50: in presence of forskolin, log values given negative
T1 construct: human α1D‐adrenoceptor (full length) were used; expressed in transfected cells; host or cells: CHO-K1
T1 sequence (P25100 1-572): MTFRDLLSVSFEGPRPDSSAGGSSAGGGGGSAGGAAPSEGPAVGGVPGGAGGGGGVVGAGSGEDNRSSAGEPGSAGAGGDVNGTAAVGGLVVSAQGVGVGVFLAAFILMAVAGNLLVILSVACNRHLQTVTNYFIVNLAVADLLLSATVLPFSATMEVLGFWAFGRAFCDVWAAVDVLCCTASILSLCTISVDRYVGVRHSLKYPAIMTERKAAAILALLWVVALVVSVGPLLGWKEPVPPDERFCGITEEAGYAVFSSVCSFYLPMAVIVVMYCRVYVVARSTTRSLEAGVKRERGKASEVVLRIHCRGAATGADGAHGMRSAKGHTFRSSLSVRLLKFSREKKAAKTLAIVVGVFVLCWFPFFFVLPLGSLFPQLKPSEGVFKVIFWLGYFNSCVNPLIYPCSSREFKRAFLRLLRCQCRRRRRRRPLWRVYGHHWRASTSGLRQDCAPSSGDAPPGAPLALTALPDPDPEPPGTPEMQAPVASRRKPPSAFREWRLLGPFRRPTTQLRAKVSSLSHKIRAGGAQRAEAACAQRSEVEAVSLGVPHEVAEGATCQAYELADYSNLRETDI

[2] = target: T1, human α1D‐adrenoceptor (full length); test: ^3H‐prazosin whole‐cell radioligand binding, CHO‐α1D cells; conditions: for Kd: CHO‐α1D cells; for Affinity selectivity ratio α1B vs α1D: higher affinity for α1D than α1B
human α1A‐adrenoceptor [3] = target: T2, human α1A‐adrenoceptor (Homo sapiens, UniProt P35348); test: ERK1/2‐phosphorylation (Surefire Alphascreen), CHO‐α1A cells; assay type: cell-based; conditions: CHO‐α1A cells, ^a bi‐phasic: initial stimulatory part; for EC50: 2–4 min, ^b also active in parent CHO cells, read-out: ERK1/2‐phosphorylation Log EC50 (converted); for ERK1/2‐phosphorylation % PDBu: % of 10 µM PDBu
T2 construct: expressed in transfected cells; host or cells: CHO-K1
T2 sequence (P35348 1-466): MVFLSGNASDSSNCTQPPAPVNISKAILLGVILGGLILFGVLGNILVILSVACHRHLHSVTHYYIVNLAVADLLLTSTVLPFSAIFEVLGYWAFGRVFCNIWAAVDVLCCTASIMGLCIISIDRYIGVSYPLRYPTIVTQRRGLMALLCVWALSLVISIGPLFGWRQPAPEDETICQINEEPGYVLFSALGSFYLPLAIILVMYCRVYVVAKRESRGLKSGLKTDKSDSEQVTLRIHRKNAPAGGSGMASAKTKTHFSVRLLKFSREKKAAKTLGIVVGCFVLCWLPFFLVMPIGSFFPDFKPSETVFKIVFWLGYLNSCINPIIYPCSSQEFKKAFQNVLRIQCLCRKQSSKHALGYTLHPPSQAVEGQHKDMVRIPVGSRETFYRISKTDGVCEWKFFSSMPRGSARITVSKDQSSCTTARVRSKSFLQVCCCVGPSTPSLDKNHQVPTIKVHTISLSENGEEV

human α1A‐adrenoceptor [4] = target: T2, human α1A‐adrenoceptor; test: ^3H‐prazosin whole‐cell radioligand binding, CHO‐α1A cells; conditions: for Kd: CHO‐α1A cells, given as log KD (negative), mean ± SEM; for Affinity selectivity ratio α1A vs α1B: higher affinity for α1A than α1B; for Affinity selectivity ratio α1A vs α1D: higher affinity for α1A than α1D
human α1B‐adrenoceptor [5] = target: T3, human α1B‐adrenoceptor (Homo sapiens, UniProt P35368); test: ^3H‐prazosin whole‐cell radioligand binding, CHO‐α1B cells; conditions: for Kd / IC50: CHO‐α1B cells; for IC50: printed as IC50> log value
T3 construct: expressed in transfected cells; host or cells: CHO-K1
T3 sequence (P35368 1-520): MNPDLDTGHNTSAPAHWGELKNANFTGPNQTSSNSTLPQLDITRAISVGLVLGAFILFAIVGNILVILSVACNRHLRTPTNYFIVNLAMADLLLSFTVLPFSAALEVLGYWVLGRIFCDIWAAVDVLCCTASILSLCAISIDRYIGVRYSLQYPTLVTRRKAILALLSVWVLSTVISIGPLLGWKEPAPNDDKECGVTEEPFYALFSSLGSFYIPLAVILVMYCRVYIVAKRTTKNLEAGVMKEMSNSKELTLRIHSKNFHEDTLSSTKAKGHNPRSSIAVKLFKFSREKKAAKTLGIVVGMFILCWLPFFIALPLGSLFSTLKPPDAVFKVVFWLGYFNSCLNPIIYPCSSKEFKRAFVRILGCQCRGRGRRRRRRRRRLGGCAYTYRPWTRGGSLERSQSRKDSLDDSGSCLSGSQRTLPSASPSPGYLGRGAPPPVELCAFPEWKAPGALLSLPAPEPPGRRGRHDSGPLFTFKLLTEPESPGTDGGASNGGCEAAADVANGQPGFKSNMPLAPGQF

human α1B‐adrenoceptor [6] = target: T3, human α1B‐adrenoceptor; test: Intracellular free calcium mobilization, CHO‐α1B cells; assay type: cell-based; conditions: for EC50: given as log EC50 (negative numbers), read-out: Intracellular calcium release Log EC50 (converted); for Log efficacy ratio KD /EC50: intrinsic efficacy ratio, KD from binding / EC50 calcium; for Intracellular calcium release % ionomycin: maximal response as % of 10 µM ionomycin response
human α1B‐adrenoceptor [7] = target: T3, human α1B‐adrenoceptor; test: ^3H‐cAMP accumulation in the presence of 10 μM forskolin, CHO‐α1B cells; assay type: cell-based; conditions: CHO‐α1B cells; for cAMP accumulation (in presence of forskolin) Fold increase: fold increase of the forskolin response; for EC50: in presence of forskolin, read-out: cAMP accumulation (in presence of forskolin) Log EC50 (converted)
human α1A‐adrenoceptor [8] = target: T2, human α1A‐adrenoceptor; test: ^3H‐cAMP accumulation, CHO‐α1A cells; assay type: cell-based; conditions: CHO‐α1A cells; for EC50: 5 h, read-out: cAMP accumulation Log EC50 (converted); for cAMP accumulation % forskolin: % of 10 µM forskolin response
human α1A‐adrenoceptor [9] = target: T2, human α1A‐adrenoceptor; test: ^3H‐cAMP accumulation in the presence of 10 μM forskolin, CHO‐α1A cells; assay type: cell-based; conditions: CHO‐α1A cells; for EC50: 10 μM forskolin, read-out: cAMP accumulation (in presence of forskolin) Log EC50 (converted); for cAMP accumulation (in presence of forskolin) Fold increase: fold increase of the forskolin response
[10] = target: T1, human α1D‐adrenoceptor (full length); test: Intracellular free calcium mobilization, CHO‐α1D cells; assay type: cell-based; conditions: CHO‐α1D cells; for Log efficacy ratio KD /EC50: intrinsic efficacy ratio, binding KD / calcium EC50; for EC50: log values given negative, read-out: Intracellular calcium release Log EC50 (converted); for Intracellular calcium release % ionomycin: maximal response as % of 10 µM ionomycin
[11] = test system: parental CHO cell line without any transfected receptors; test: Forskolin‐stimulated cAMP accumulation, parent CHO cells without transfected receptors; assay type: cell-based, Chinese hamster; conditions: CHO cells without transfected receptors; in presence of forskolin
human α1B‐adrenoceptor [12] = target: T3, human α1B‐adrenoceptor; test: ERK1/2‐phosphorylation (Surefire Alphascreen), CHO‐α1B cells; assay type: cell-based; conditions: for EC50 / ERK1/2‐phosphorylation % PDBu: for bi‐phasic responses the initial stimulatory part; for EC50: read-out: ERK1/2‐phosphorylation Log EC50 (converted); for ERK1/2‐phosphorylation % PDBu: maximal response as % PDBu response
[13] = 3H‐prazosin binding Log KD, whole‐cell binding (from Table 1), log values given negative
[14] = given as log KD (negative), mean ± SEM, 'early plateau' = specific binding not fully inhibited
[15] = Log KD α1D, ^3H‐prazosin whole cell binding, given as log KD (negative), mean ± SEM, 'early plateau' = specific binding not fully inhibited
[16] = Log KD α1A, ^3H‐prazosin whole cell binding

cAMP (in presence of forskolin) Fold increase [1] | EC50 [1] [µM] | Kd [2, 13] [µM] | EC50 (human α1A‐adrenoceptor [3]) [µM] | ERK1/2‐phosphorylation % PDBu (human α1A‐adrenoceptor [3]) [%] | Affinity selectivity ratio α1A vs α1B (human α1A‐adrenoceptor [4]) [fold] | Affinity selectivity ratio α1A vs α1D (human α1A‐adrenoceptor [4]) [fold] | cAMP accumulation (in presence of forskolin) Fold increase (human α1B‐adrenoceptor [7]) [fold] | EC50 (human α1B‐adrenoceptor [7]) [µM] | EC50 (human α1A‐adrenoceptor [8]) [µM] | cAMP accumulation % forskolin (human α1A‐adrenoceptor [8]) [%] | EC50 (human α1A‐adrenoceptor [9]) [µM] | cAMP accumulation (in presence of forskolin) Fold increase (human α1A‐adrenoceptor [9]) [fold] | Log efficacy ratio KD /EC50 [10] | EC50 [10] [µM] | Intracellular calcium release % ionomycin [10] [%] | Affinity selectivity ratio α1B vs α1D [2] [fold] | EC50 (human α1B‐adrenoceptor [6]; CHO‐α1B cells) [µM] | Log efficacy ratio KD /EC50 (human α1B‐adrenoceptor [6]; CHO‐α1B cells) | Structure (SMILES) | cAMP accumulation (in presence of forskolin) Log EC50 [11] | further results
1.16 ± 0.06 | 0.309 | 4.37 | 0.0437 | 85.5 ± 4.3 | 7.9 | 9.5 | 1.24 ± 0.04 | 2 | 0.871 | 11.9 ± 1.6 | 0.661 | 1.98 ± 0.14 | 2.26 | 0.024 | 10.6 ± 1.8 |  |  |  | CC(CCc1ccc(O)cc1)NCCc1ccc(O)c(O)c1 (stereo not drawn) [Dobutamine] | No response | Kd [2, 14]: 4.37 µM; Kd (human α1A‐adrenoceptor [4]): 0.457 µM; Kd (human α1B‐adrenoceptor [5]; Log KD α1B, ^3H‐prazosin whole cell binding, given as log KD (negative), mean ± SEM): 3.63 µM; Kd (human α1B‐adrenoceptor [5]; Log KD, ^3H‐prazosin binding, whole‐cell binding (from Table 1), given as log KD (negative numbers)): 3.63 µM; Affinity selectivity ratio α1B vs α1D (human α1B‐adrenoceptor [5]; left sub‐column: higher affinity for α1B than α1D): 1.2 fold; Agonist (calcium) response in CHO‐α1B cells (human α1B‐adrenoceptor [6]): did not stimulate any measurable; Intracellular calcium release % Ionomycin at 100 µM (human α1B‐adrenoceptor [6]; CHO‐α1B cells, response at 100 µM ligand (no EC50 given), % of ionomycin response): 3.0 ± 1.1%; ERK1/2‐phosphorylation response in CHO‐α1B cells (human α1B‐adrenoceptor [12]): did not stimulate any measurable; ERK1/2‐phosphorylation % PDBu at 100 µM (human α1B‐adrenoceptor [12]; CHO‐α1B cells, response at 100 µM ligand (no EC50 given)): 56.3 ± 11.3%
1.20 ± 0.7 | 0.229 |  | 0.0347 | 87.4 ± 2.3 | 28.8 | 2.5 | 2.67 ± 0.18 | 0.324 | 2.88 | 41.1 ± 2.3 | 0.155 | 2.22 ± 0.05 | 0.53 | 3.47 | 28.6 ± 2.0 | 11.5 | 0.0269 | 3.70 | N=C(N)NC(=O)Cc1c(Cl)cccc1Cl [Guanfacine] | No response | Kd [2, 14]: 11.7 µM; Kd (human α1A‐adrenoceptor [4]): 4.68 µM; Kd (human α1B‐adrenoceptor [5]; given as log KD (negative), mean ± SEM): 135 µM; Intracellular calcium release % ionomycin (human α1B‐adrenoceptor [6]; CHO‐α1B cells): 59.0 ± 2.4%; EC50 (human α1B‐adrenoceptor [12]; CHO‐α1B cells): 0.195 µM; ERK1/2‐phosphorylation % PDBu (human α1B‐adrenoceptor [12]; CHO‐α1B cells): 97.4 ± 2.7%
1.21 ± 0.04 | 10.5 | 151 | 0.0275 | 81.4 ± 4.5 | >42.7 | 6.5 | 2.42 ± 0.05 | 6.92 | 4.9 | 120.0 ± 3.7 | 0.398 | 2.19 ± 0.09 | 1.56 | 4.17 | 22.6 ± 4.7 | >6.6 | 0.229 | >3.64 | COc1ccc(OC)c(C(O)C(C)N)c1 (stereo not drawn) [Methoxamine] | No response | Kd [2, 15]: 151 µM; Kd (human α1A‐adrenoceptor [4]; [16]): 23.4 µM; IC50 (human α1B‐adrenoceptor [5]): > 1000 µM; Intracellular calcium release % ionomycin (human α1B‐adrenoceptor [6]; CHO‐α1B cells): 59.1 ± 3.2%; EC50 (human α1B‐adrenoceptor [12]; CHO‐α1B cells): 2.82 µM; ERK1/2‐phosphorylation % PDBu (human α1B‐adrenoceptor [12]; CHO‐α1B cells): 83.8 ± 5.7%
1.18 ± 0.04 | 0.759 | 35.5 | 0.145 | 72.8 ± 7.0 | >9.8 |  | 2.47 ± 0.09 | 0.661 |  |  | 1.29 | 2.17 ± 0.08 | 1.42 | 1.35 | 13.7 ± 1.8 | >28.1 | 0.0138 | >4.86 | CCNCC(O)c1cccc(O)c1 (stereo not drawn) [Etilefrine] | No response | Kd [2, 15]: 35.5 µM; Affinity selectivity ratio α1A vs α1D ([2]; higher affinity for α1D than α1A): 2.9 fold; Kd (human α1A‐adrenoceptor [4]; [16]): 102 µM; IC50 (human α1B‐adrenoceptor [5]): > 1000 µM; Intracellular calcium release % ionomycin (human α1B‐adrenoceptor [6]; CHO‐α1B cells): 61.1 ± 2.1%; cAMP accumulation % forskolin at 100 µM (human α1A‐adrenoceptor [8]; response at 100 μM ligand, no EC50 obtained): 82.7 ± 5.5%; EC50 (human α1B‐adrenoceptor [12]; CHO‐α1B cells): 0.302 µM; ERK1/2‐phosphorylation % PDBu (human α1B‐adrenoceptor [12]; CHO‐α1B cells): 78.8 ± 6.1%
